Measured values reported in patent US20140309291A1, “Compositions and Methods for Increasing Stress Resilience” (The Children's Hospital of Philadelphia, priority 2011, published 2014).

Tests used:
[1] = social defeat paradigm (defeat latency); assay type: in vivo, rats; conditions: SL (short latency, vulnerable) animals; drug given 1 hour prior to social defeat stress on 3 days following 7 days of defeat; p=0.0726 (FIG. 2A)
Excerpt: The social defeat paradigm used in these studies was modified from the resident-intruder model (Miczek, K. A. (1979) Psychopharmacology (Berl) 60:253-259). Rats were randomly assigned to either a social defeat or control group for a consecutive 7 days (Bhatnagar et al. (2006) J. Neuroendocrinol., 18:13-24; Buwalda et al. (1999) J. Neuroendocrinol., 11:513-520). During each episode of social stress, a rat was placed into the home cage territory of an unfamiliar Long-Evans resident previously screened for high aggression (Bhatnagar et al. (2006) J. Neuroendocrinol., 18:13-24; Buwalda et al. (1999) J. Neuroendocrinol., 11:513-520). […] After defeat, a wire mesh enclosure was placed in the cage to prevent physical contact between the resident and intruder but allowing visual, auditory, and olfactory contact for the remainder of the 30-minute defeat session. Latency to assume a submissive posture (defeat) was recorded and averaged over the seven daily defeat exposures. […] Rats were returned to their home cage after each session, and body weight was recorded on days 1 and 8. […]
Following 7 days of defeat, the SL and LL groups were divided into two separate treatment groups receiving either vehicle or FTY720, 1 hour prior to social defeat stress on the following 3 days. Defeat latencies were recorded. […]

[2] = social interaction test of anxiety after social defeat stress; assay type: in vivo, rats
Method: Animals were exposed to 7 days of social defeat stress. During these 7 days of defeat stress the average latency to defeat was observed. Based on this latency to defeat, animals were either classified as short latency (SL, defeat <300 seconds) or long latency (LL, defeat >300 seconds).
Following 7 days of defeat, the SL and LL groups were divided into two separate treatment groups receiving either vehicle or FTY720, 1 hour prior to social defeat stress on the following 3 days. Defeat latencies were recorded. Additionally, 48 hours following the end of social defeat stress, animals were tested in the social interaction test of anxiety.

S1P3 receptor = S1P3 receptor (Homo sapiens, UniProt Q99500); conditions: multiple Sph receptors, including the S1P3 receptor; cited from earlier work
Chain of S1P3 receptor (Q99500 whole entry): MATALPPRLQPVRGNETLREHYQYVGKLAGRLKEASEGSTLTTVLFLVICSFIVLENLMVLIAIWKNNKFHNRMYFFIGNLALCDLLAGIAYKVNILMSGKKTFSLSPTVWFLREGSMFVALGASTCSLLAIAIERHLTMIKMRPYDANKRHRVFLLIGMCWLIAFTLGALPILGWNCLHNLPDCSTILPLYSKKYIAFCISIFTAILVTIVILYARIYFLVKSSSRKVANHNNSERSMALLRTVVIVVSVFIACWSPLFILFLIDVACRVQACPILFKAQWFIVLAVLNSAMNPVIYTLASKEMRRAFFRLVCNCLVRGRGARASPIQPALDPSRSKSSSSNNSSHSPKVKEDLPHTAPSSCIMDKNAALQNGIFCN

SMILES: CCCCCCCCc1ccc(CCC(N)(CO)CO)cc1 [FTY720]
- defeat latency [1]: tended to increase defeat latency of SL animals to the level of LL animals
- social interaction time ([2]; SL animals, tested 48 hours following the end of social defeat stress, p=0.0049 (FIG. 2B)): prevented the decreased interaction time
- effect of the drug in resilient and control animals ([2]; resilient LL rats or control rats): no effects
- agonist activity at Sph receptors (S1P3 receptor): potent agonist
